Reference: PMC10733463, “Berberine-microbiota interplay: orchestrating gut health through modulation of the gut microbiota and metabolic transformation into bioactive metabolites” (Frontiers in Pharmacology, 2023)

Tests used:
[1] = UPLC-MS/MS quantification of berberine and metabolites in ileal and caecal content; assay type: in vivo, Ross 308 broiler chickens; conditions: 21 days
From the text: (§1) The study was undertaken following the guidelines of the ethics committee of the Faculty of Veterinary Medicine and Bioscience Engineering, Ghent University, in accordance with the EU Directive 2010/63/EU. One-day-old Ross 308 male broilers were obtained from a local hatchery and housed in pens on wood shavings. They were allotted into 4 groups, with three replicate pens per group each housing 8 chickens. The animals were not vaccinated. Water and commercial starter feed (day 1–12, FARM 1 Mash, Country’s Best, Versele Laga, Deinze, Belgium) or grower (day 13–21, FARM 2 mash, Country’s Best, Versele Laga, Deinze, Belgium) were provided ad libitum. The control group received the standard non-supplemented diets, whereas the chickens in other groups were fed the same feed supplemented with 0.1, 0.5 or 1 g berberine/kg feed throughout the whole trial period. At day 21, 4 birds per pen were weighted then euthanized by sodium pentobarbital injection for sampling. Individual jejunal, ileal, caecal and colonic contents were stored at −20°C for microbiota composition analysis (16S rRNA gene sequencing). Additionally, ileal and caecal content samples were collected and stored at −20°C for berberine and berberine-derived metabolite quantification. Duodenal tissue samples were collected and fixed in 4% phosphate buffered formaldehyde for histological analysis. Blood samples were collected in heparin tubes and centrifuged at 524 g for 10 min to recover the plasma fraction, which was further mixed with 17 mg/mL L-ascorbic acid for dihydroberberine stabilization, and stored at −20°C for berberine and berberine-derived metabolite quantification.
(§2) The column temperature was maintained at 25°C. The autosampler temperature was set at 10°C.
250 mg of ileal or caecal content was weighed in a 15 mL polypropylene centrifuge tube and 250 µL of ascorbic acid 170 mg/mL solution was added for stabilization of dihydroberberine, followed by brief vortexing. Subsequently, 25 µL of an internal standard solution containing 250 μg/mL of berberine-d6 and 2.5 μg/mL tetrahydropalmatine were added, followed by brief vortexing. A 2.5 mL volume of extraction solvent was then added, consisting of a 1% (v/v) formic acid solution in methanol. The sample was put on a rotary shaker set at 80 rpm for 20 min, followed by centrifugation (3,720 g, 10 min, 4°C). The supernatant was then diluted, by a factor 5 for measurement of low abundance components, and by a factor 2,000 for measurement of high abundance components. The 1/5 diluted sample extract was prepared directly in an autosampler vial as follows: 200 µL sample extract were mixed with 100 µL ascorbic acid 170 mg/mL solution and 700 µL Milli-Q water. For the 1/2,000 diluted sample extract, an intermediate 1/100 sample dilution was prepared by combining 500 µL sample extract and 49.5 mL of Milli-Q water. 50 μL was then transferred in an autosampler vial followed by the addition of 950 µL of Milli-Q water. For both dilutions, a 5 µL sample aliquot was injected onto the UPLC-MS/MS apparatus. Quantification was based on the ratio of the analyte peak area compared to the peak area of the internal standard tetrahydropalmatine for 1/5 diluted sample extracts, and on the ratio of the analyte peak area compared to the peak area of the internal standard berberine-d6 for 1/2,000 diluted sample extracts.
Calibration standards and quality control samples were prepared as follows: 250 mg of blank ileal or caecal content were supplemented with 250 µL of ascorbic acid 170 mg/mL solution, 25 µL mixed solution of berberine and metabolites (with the exception of dihydroberberine) at different levels, 25 µL of dihydroberberine solution, stabilized with 17 mg/mL ascorbic acid, at different levels and 25 µL of an internal standard solution containing 0.625 μg/mL of berberine-d6 and 2.5 μg/mL tetrahydropalmatine. The calibration curve was in the 62.5–5,000 ng/g range, and included 62.5, 125, 250, 500, 1,000, 2,500, and 5,000 ng/g levels. […]

[2] = UPLC-MS/MS quantification of berberine and metabolites in plasma; assay type: in vivo, Ross 308 broiler chickens; conditions: chickens fed 0.1, 0.5 or 1 g berberine/kg feed for 21 days; LOQ 0.1 ng/mL
From the text: as §1, §2
A 137.5 µL plasma sample containing 17 mg/mL L-ascorbic acid was used for sample extraction. The ascorbic acid solution was added to prevent oxidation of dihydroberberine to berberine during sample storage ([Feng et al., 2015]). The plasma sample was transferred to an OstroTM 96 well-plate (25 mg) (Waters). Subsequently, 50 µL Milli-Q water and 25 µL of an internal standard solution containing 100 ng/mL of both berberine-d6 and tetrahydropalmatine were added. A 640 µL volume of 1% (v/v) formic acid solution in acetonitrile (1/3 ratio) was added, followed by gentle mixing. Vacuum was applied on the Ostro™ plate for 5 min and the eluate was collected in a 2 mL square 96-well collector plate. The sample was transferred in a glass tube and evaporated at 40°C under a gentle stream of nitrogen in a Pierce (Rockford, United States) Reacti-Therm III™ Heating Module and Reacti-Vap™ III Module. The dried sample extract was reconstituted in 500 µL Milli-Q water, followed by injection of a 5 µL sample aliquot onto the UPLC-MS/MS apparatus. Quantification was based on the ratio of the analyte peak area compared to the peak area of the internal standard berberine-d6.
Calibration standards and quality control samples were prepared as follows: 137.5 µL of blank plasma stabilized with 17 mg/mL L-ascorbic acid were supplemented with 25 µL mixed working solutions of berberine and metabolites (except dihydroberberine) at different levels, 25 µL of dihydroberberine working solution, stabilized with 17 mg/mL L-ascorbic acid, at different levels and 25 µL of an internal standard solution containing 100 ng/mL of both berberine-d6 and tetrahydropalmatine. The calibration curve was in the 0.1–100 ng/mL range, including 0.1, 0.5, 1, 2.5, 5, 10, 25, […], 50 and 100 ng/mL levels.
The UPLC-MS/MS analysis method for the quantification of berberine and berberine-derived metabolites both in plasma and ileal/caecal intestinal content was validated to the guidelines of the European Medicines Agency, i.e., of the Committee for Veterinary Medicinal Products (EMEA/CVMP/VICH/463202/2009) and of the Committee for Medicinal Products for Human Use (EMEA/CHMP/EWP/192217/20), and in accordance with the EU Directive 2002/657/EC. […]

[3] = Dihydroberberine stability in solution over 24 hours; assay type: physicochemical; conditions: within 24 h; 10 ng/mL in Milli-Q water, 10°C, without vitamin C
Protocol: A working solution of dihydroberberine at 10 ng/mL was prepared in Milli-Q water and supplemented or not with 17 mg/mL L-ascorbic acid (vitamin C) solution and injected during 24 hours of storage time in the autosampler at 10°C.

[4] = system: Caco-2 cells; assay: Berberine metabolism in intestinal cell cultures, Caco-2; assay type: in vitro ADME, human
Protocol: (§3) Caco-2 and T84 cells were seeded at 2 × 10^5 cells/well in 96-well plates and cultivated for 24 h in their respective medium, as described before. Cells were treated with 200 µL of 0.1 μg/mL berberine in antibiotic-free medium and incubated for 48 h. Berberine medium only was incubated in the same conditions as the cells and used as control for metabolite baseline levels. 100 μL of cell cultures or control medium were collected and centrifuged at 13,000 g for 10 min 80 μL of the supernatant was mixed with 20 µL 170 mg/mL L-ascorbic acid solution in water for dihydroberberine stabilization and stored at −20°C until metabolite analysis. All experiments were performed in triplicate at 37°C, 5% CO2. Metabolite production was expressed as a log2 fold change, calculated as the log2 of the ratio of the metabolite response at t = 48 h in the cell cultures over the metabolite response at t = 48 h in the control medium.
as §2

[5] = system: T84 cells; assay: Berberine metabolism in intestinal cell cultures, T84; assay type: in vitro ADME, human
Protocol: as §3, §2

SMILES	Ratio caecum / ileum (concentration) ([1]; 0.1 g berberine/kg feed)	Ratio caecum / ileum (concentration) ([1]; 0.5 g berberine/kg feed)	Ratio caecum / ileum (concentration) ([1]; 1 g berberine/kg feed)	Detection in plasma [2]	Oxidation of dihydroberberine back to berberine [3]	Detection in cell culture ([4]; Caco-2, 0.1 μg/mL berberine, 48 h)	Detection in cell culture ([5]; T84, 0.1 μg/mL berberine, 48 h)	Log2(fold change) of metabolite response, cell culture over berberine control medium at 48 h ([4]; human, Caco-2, 48 h, 0.1 µg/mL)	Log2(fold change) of metabolite response, cell culture over berberine control medium at 48 h ([5]; human, 0.1 µg/mL)
COc1ccc2c(c1OC)CN1CCc3cc4c(cc3C1=C2)OCO4 [Dihydroberberine, dihydroberberine]	0.75	0.27	0.44	effectively detected	up to 66%				
COc1ccc2cc3n(c(=O)c2c1OC)CCc1cc2c(cc1-3)OCO2 [Oxyberberine, oxyberberine]	1.94	1.48	0.95	not detected		not detected	not detected		
COc1cc2c(cc1OC)-c1cc3ccc(OC)c(OC)c3c[n+]1CC2 [Palmatine, palmatine chloride]								-0.18	-0.72
